This is an account of results in ChEMBL document CHEMBL4028877, “Targets for Drug Therapy for Autism Spectrum Disorder: Challenges and Future Directions” (J Med Chem, 2017).

For assay [1], the target named is Glutamate receptor ionotropic, NMDA 2A (Rattus norvegicus) (UniProt Q00959). The experiment in a line: Antagonist activity at GluN2A in CA1 region of Sprague-Dawley rat hippocampal slices assessed as inhibition of schaffer collateral input-stimulated field excitatory postsynaptic potential at 30 to 50 uM after 40 mins by electrophysiology assay.
Glutamate receptor ionotropic, NMDA 2A (Rattus norvegicus), sequence (Q00959 23-1464 limits assumed): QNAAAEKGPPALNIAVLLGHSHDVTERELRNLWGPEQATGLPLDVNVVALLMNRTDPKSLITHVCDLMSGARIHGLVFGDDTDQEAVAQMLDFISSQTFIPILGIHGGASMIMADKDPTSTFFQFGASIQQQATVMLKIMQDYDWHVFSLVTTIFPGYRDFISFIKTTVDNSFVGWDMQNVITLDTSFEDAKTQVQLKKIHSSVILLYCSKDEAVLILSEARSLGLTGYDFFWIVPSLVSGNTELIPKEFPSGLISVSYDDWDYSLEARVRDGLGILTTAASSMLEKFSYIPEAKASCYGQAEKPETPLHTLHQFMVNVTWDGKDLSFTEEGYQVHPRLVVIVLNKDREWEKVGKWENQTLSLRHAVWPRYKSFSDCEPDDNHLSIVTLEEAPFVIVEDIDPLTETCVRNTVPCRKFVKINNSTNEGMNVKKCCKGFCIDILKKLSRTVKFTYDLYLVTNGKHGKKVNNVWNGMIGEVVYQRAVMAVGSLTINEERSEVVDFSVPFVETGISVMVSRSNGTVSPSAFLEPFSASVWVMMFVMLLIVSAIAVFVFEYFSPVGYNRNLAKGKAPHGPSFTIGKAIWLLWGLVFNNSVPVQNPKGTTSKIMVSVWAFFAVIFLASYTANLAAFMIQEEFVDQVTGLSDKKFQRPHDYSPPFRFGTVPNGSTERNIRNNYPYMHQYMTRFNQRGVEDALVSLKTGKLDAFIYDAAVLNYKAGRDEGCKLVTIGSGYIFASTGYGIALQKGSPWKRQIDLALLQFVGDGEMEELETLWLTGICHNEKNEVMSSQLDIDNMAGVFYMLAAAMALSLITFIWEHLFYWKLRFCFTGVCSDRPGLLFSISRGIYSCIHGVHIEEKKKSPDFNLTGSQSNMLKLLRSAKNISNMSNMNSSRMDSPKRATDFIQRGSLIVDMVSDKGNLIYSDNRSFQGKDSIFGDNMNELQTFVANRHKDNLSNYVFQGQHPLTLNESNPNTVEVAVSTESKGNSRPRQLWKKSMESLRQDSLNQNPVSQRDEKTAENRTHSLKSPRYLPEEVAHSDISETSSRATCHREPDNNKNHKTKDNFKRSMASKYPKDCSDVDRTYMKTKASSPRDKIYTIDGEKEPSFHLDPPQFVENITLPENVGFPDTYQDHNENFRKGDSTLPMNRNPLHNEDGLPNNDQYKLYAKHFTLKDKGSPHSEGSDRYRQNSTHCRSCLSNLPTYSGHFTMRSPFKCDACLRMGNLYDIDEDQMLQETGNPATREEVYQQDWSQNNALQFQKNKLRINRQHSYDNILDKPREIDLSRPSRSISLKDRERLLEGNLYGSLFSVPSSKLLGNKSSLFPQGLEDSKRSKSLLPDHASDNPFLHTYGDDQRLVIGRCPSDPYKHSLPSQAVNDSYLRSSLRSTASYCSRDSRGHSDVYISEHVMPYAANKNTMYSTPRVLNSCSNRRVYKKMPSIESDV
Assay [2] shares this target. The experiment in a line: Antagonist activity at GluN2A in rat primary pyramidal neurons assessed as inhibition of NMDA/glycine-induced current amplitude at 10 uM at holding potential of -70 mV by patch-clamp electrophysiology assay.
Assay [3] concerns the target T1, Oxytocin receptor (Mus musculus, UniProt P97926).
T1 sequence (P97926 whole entry): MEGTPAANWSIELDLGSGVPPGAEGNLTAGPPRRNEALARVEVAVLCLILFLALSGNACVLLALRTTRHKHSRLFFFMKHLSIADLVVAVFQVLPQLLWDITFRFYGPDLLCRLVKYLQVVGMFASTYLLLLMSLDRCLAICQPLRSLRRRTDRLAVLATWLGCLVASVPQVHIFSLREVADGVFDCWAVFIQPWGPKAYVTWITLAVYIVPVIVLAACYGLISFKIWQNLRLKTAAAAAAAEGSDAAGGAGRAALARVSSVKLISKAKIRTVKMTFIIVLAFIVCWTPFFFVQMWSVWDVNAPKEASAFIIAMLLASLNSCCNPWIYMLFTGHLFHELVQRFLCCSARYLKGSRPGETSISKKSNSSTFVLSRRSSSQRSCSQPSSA
The experiment in a line: Displacement of [Tyrosyl-2,6-3H]Oxytocin from recombinant mouse OTR expressed in CHO-K1 cells after 180 mins by liquid scintillation counting method. Format: cell-based.

Assay [4] addresses T1, Oxytocin receptor. The experiment in a line: Agonist activity at recombinant mouse OTR expressed in CHO-K1 cells assessed as induction of Ca2+ mobilization after overnight incubation by FLIPR assay. Format: functional, cell-based. (In general: A change in cytosolic calcium serves as a functional read-out for many receptors and channels.)

What is called inhibition is the percentage by which the read-out fell short of the control. With `Cc1ncc(CNC(=O)c2cnc(CNS(=O)(=O)c3ccc(F)c(Cl)c3)cn2)s1`, the figures for the inhibition in assay [1] and in assay [2] were 60% and 30%, respectively.

One may read the Ki as the dissociation constant of the complex between target and ligand, obtained from inhibition or displacement. A word on the EC50: it is the concentration needed to bring the measured effect to its halfway point. Take `Cc1cc(C(=O)N2Cc3cnn(C)c3Nc3ccccc32)ccc1CNC(=O)N1CCN(Cc2cc(O)cc(O)c2)CC1`: the Ki at Oxytocin receptor [3] came out at 51.6 nM. Further, the EC50 on Oxytocin receptor [4] stood at 29 nM.

In the case of `Cc1ncc(CNC(=O)c2cnc(CNS(=O)(=O)c3ccc(F)c(F)c3)c(C)n2)s1`, the inhibition in assay [1] was found to be 60%; in assay [2], 30%.
